Assay results from patent publication US8987473B2, “Ring-fused compound” (Sato Pharmaceutical Co., Ltd., priority 2011, dated 2015).

Target: human URAT1 (Homo sapiens (Human), UniProt Q96S37)
Assay: Test for uric acid transport inhibition using human URAT1 expression cell
Assay type: cell-based
Details: human URAT1 stable expression CHO cell; 14C-labeled uric acid 38 μM final concentration; incorporation at room temperature for 5 minutes; 100% window defined with benzbromarone 100 μM; read-out: URAT1 Inhibitory Activity (IC50)
Protocol: In this Example, it was evaluated whether the Example compound has the URAT1 inhibitory activity.
Human URAT1 full-length cDNA was introduced to an expression vector pcDNA5/FRT/V5-His TOPO (registered trademark) (Invitrogen Corporation). The obtained expression plasmid was introduced to Chinese hamster ovary cell (hereinafter referred to as the CHO cell) by the liposome method using Lipofectamine LTX (Invitrogen), and cultured in a selection medium including hygromycin, whereby to prepare human URAT1 stable expression cell.
The human URAT1 expression CHO cell was cultured using D-MEM/F-12 (1:1) mixed medium including 10% bovine fetal serum and hygromycin at 37° C. in the presence of 5% CO2. The cells were seeded onto a 96 well plate (Corning Incorporated) in 0.8×10^5 cells/well, and after 24 hours, the test for uric acid transport inhibition below was performed.
The medium was removed by aspiration, and then the cells were washed once with an assay buffer including 125 mM of sodium gluconate, 4.8 mM of potassium gluconate, 1.2 mM of potassium dihydrogen phosphate, 1.2 mM of magnesium sulfate, 1.3 mM of calcium gluconate and 5.6 mM of glucose. 50 μL assay buffer including the test compound in various concentrations was added, and further 50 μL assay buffer including a radioactive ligand (uric acid labeled with ^14C; 38 μM final concentration) was added, and incorporation reaction was performed at room temperature for 5 minutes. Immediately after completion of the reaction, the reaction mixture was washed twice with 100 μL ice-cold assay buffer, and 100 μL of 0.1 N sodium hydroxide was added. The reaction mixture was stirred to lyse the cells, and 4 mL Hionic-Fluor (Packard BioScience CO) was added, and then the radioactivity was measured with a liquid scintillation counter (Beckman Coulter, Inc. and Packard BioScience CO).
The radioactivity when each concentration of the test compound was added (uric acid incorporation activity, %) was calculated in which the difference of the radioactivity when the test compound was not added (DMSO added), and the radioactivity when a positive control compound, benzbromarone (known URAT1 inhibitor) was added in 100 μM, was taken as 100%, and the concentration of the test compound when the uric acid incorporation activity was inhibited to 50% (IC50) was obtained.

Sequence of human URAT1 (Q96S37 whole entry): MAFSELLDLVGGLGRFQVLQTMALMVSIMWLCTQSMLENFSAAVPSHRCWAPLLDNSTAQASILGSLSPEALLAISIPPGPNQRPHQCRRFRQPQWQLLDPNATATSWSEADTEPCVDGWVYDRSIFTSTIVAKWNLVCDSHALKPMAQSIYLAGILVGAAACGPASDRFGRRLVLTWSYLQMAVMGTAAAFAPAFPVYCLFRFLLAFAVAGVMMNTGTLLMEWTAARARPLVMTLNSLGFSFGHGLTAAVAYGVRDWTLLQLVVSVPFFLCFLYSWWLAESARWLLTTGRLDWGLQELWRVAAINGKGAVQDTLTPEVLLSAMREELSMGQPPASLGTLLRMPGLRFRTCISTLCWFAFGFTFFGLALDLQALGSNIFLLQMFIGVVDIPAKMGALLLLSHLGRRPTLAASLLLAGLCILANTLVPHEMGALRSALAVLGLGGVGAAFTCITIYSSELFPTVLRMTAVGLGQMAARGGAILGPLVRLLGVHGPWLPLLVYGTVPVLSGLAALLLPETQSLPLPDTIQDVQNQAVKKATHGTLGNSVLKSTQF

Compound	IC50 [nM]
CCc1cn(Cc2c(C)cccc2C)c2cc(C(=O)O)ccc12 [Example 91, 1-(2,6-dimethylbenzyl)-3-ethyl-1H-indole-6-carboxylic acid]	43
Cc1nn(Cc2csc3ccc(Cl)cc23)c2cc(CCC(=O)O)ccc12 [Example 124, 3-{1-[(5-chlorobenzo[b]thiophene-3-yl)methyl]-3-methyl-1H-indazole-6-yl}propionic acid]	31
Cc1cn(Cc2cc3c(cc2Cl)OCO3)c2cc(CC(=O)O)ccc12 [Example 88, 2-{1-[(6-chlorobenzo[d][1,3]dioxol-5-yl)methyl]-3-methyl-1H-indole-6-yl}acetic acid]	98
Cc1nn(Cc2cccc3cccnc23)c2cc(CC(=O)O)ccc12 [Example 115, 2-[3-methyl-1-(quinoline-8-ylmethyl)-1H-indazole-6-yl]acetic acid]	394
Cc1nn(Cc2csc3ccc(Cl)cc23)c2cc(CC(=O)O)ccc12 [Example 106, 2-{1-[(5-chlorobenzo[b]thiophene-3-yl)methyl]-3-methyl-1H-indazole-6-yl}acetic acid]	55
Cc1cccc(C)c1Cn1cc(Cl)c2ccc(CC(=O)O)cc21 [Example 68, 2-[3-chloro-1-(2,6-dimethylbenzyl)-1H-indole-6-yl]acetic acid]	30
Cc1cn(Cc2cccc(Cl)c2Cl)c2cc(CC(=O)O)ccc12 [Example 84, 2-[1-(2,3-dichlorobenzyl)-3-methyl-1H-indole-6-yl]acetic acid]	53
Cc1cccc(C)c1CN1CC(C)c2ccc(CC(=O)O)cc21 (stereo not drawn) [Example 78, (3-RS)-2-[1-(2,6-dimethylbenzyl)-2,3-dihydro-3-methyl-1H-indole-6-yl]acetic acid]	24
Cc1cccc(C)c1Cn1cc(C)c2ccc(C(=O)O)cc21 [Example 61, 1-(2,6-dimethylbenzyl)-3-methyl-1H-indole-6-carboxylic acid]	46
Cc1nn(Cc2cccc(Cl)c2Cl)c2cc(CC(=O)O)ccc12 [Example 99, 2-[1-(2,3-dichlorobenzyl)-3-methyl-1H-indazole-6-yl]acetic acid]	41
Cc1nn(Cc2c(Cl)cccc2C#N)c2cc(CC(=O)O)ccc12 [Example 109, 2-[1-(2-chloro-6-cyanobenzyl)-3-methyl-1H-indazole-6-yl]acetic acid]	335
Cc1cn(Cc2c(F)cccc2Cl)c2cc(CC(=O)O)ccc12 [Example 86, 2-[1-(2-chloro-6-fluorobenzyl)-3-methyl-1H-indole-6-yl]acetic acid]	28
Cc1cn(Cc2c(Cl)cccc2Cl)c2cc(CCC(=O)O)ccc12 [Example 89, 3-[1-(2,6-dichlorobenzyl)-3-methyl-1H-indole-6-yl]propionic acid]	23
Cc1cccc(C)c1CN1CCc2ccc(CC(=O)O)cc21 [Example 75, 2-[1-(2,6-dimethylbenzyl)-2,3-dihydro-1H-indole-6-yl]acetic acid]	77
Cc1cc(C)c(Cn2nc(C)c3ccc(CC(=O)O)cc32)c(C)c1 [Example 108, 2-[3-methyl-1-(2,4,6-trimethylbenzyl)-1H-indazole-6-yl]acetic acid]	94
Cc1cccc(C)c1Cn1nc(C)c2ccc(CCC(=O)O)cc21 [Example 121, 3-[1-(2,6-dimethylbenzyl)-3-methyl-1H-indazole-6-yl]propionic acid]	41
Cc1cccc(Cl)c1Cn1nc(C)c2ccc(CC(=O)O)cc21 [Example 102, 2-[1-(2-chloro-6-methylbenzyl)-3-methyl-1H-indazole-6-yl]acetic acid]	52

More lines, now with the values ahead:

IC50 [nM]	Compound
35	CCc1nn(Cc2c(C)cccc2C)c2cc(C(=O)O)ccc12 [Example 143, 1-(2,6-dimethylbenzyl)-3-ethyl-1H-indazole-6-carboxylic acid]
438	Cc1nn(Cc2c(Cl)cccc2Cl)c2cc(-c3nnn[nH]3)cnc12 [Example 156, 1-(2,6-dichlorobenzyl)-3-methyl-6-(1H-tetrazole-5-yl)-1H-pyrazolo[4,3-b]pyridine]
165	Cc1cccc(C)c1Cn1c(=O)n(C(C)C)c2ccc(C(=O)O)cc21 [Example 186, 3-(2,6-dimethylbenzyl)-1-isopropyl-2-oxo-2,3-dihydro-1H-benzimidazole-5-carboxylic acid]
13	Cc1nn(Cc2c(Cl)cccc2Cl)c2cc(Cc3nnn[nH]3)ccc12 [Example 134, 1-(2,6-dichlorobenzyl)-3-methyl-6-(1H-tetrazole-5-ylmethyl)-1H-indazole]
124	Cc1cccc(Cl)c1Cn1nc(C)c2ncc(-c3nnn[nH]3)cc21 [Example 160, 1-(2-chloro-6-methylbenzyl)-3-methyl-6-(1H-tetrazole-5-yl)-1H-pyrazolo[4,3-b]pyridine]
295	N#Cc1nn(Cc2c(Cl)cccc2Cl)c2cc(C(=O)O)ccc12 [Example 150, 3-cyano-1-(2,6-dichlorobenzyl)-1H-indazole-6-carboxylic acid]
23	Cc1nn(Cc2c(Cl)cccc2Cl)c2cc(CCc3nnn[nH]3)ccc12 [Example 135, 1-(2,6-dichlorobenzyl)-3-methyl-6-[2-(1H-tetrazole-5-yl)ethyl]-1H-indazole]
184	Cc1nn(Cc2c(Cl)cccc2Cl)c2nc(Cc3nnn[nH]3)ccc12 [Example 152, 1-(2,6-dichlorobenzyl)-3-methyl-6-(1H-tetrazole-5-ylmethyl)-1H-pyrazolo[3,4-b]pyridine]
80	CCc1nn(Cc2c(Cl)cccc2Cl)c2cc(C(=O)O)cnc12 [Example 167, 1-(2,6-dichlorobenzyl)-3-ethyl-1H-pyrazolo[4,3-b]pyridine-6-carboxylic acid]
17	Cc1nn(Cc2c(Cl)cccc2C2CC2)c2cc(CCC(=O)O)ccc12 [Example 185, 3-[1-(2-chloro-6-cyclopropylbenzyl)-3-methyl-1H-indazole-6-yl]propionic acid]
576	Cc1nn(Cc2c(Cl)cccc2Cl)c2cc(C(O)C(=O)O)ccc12 (stereo not drawn) [Example 128, [1-(2,6-dichlorobenzyl)-3-methyl-1H-indazole-6-yl]hydroxyacetic acid]
113	Cc1ccc(C)c(Cn2nc(C)c3ncc(-c4nnn[nH]4)cc32)c1 [Example 163, 1-(2,5-dimethylbenzyl)-3-methyl-6-(1H-tetrazole-5-yl)-1H-pyrazolo[4,3-b]pyridine]
55	Cc1nn(Cc2c(Cl)cccc2C2CC2)c2cc(-c3nnn[nH]3)cnc12 [Example 164, 1-(2-chloro-6-cyclopropylbenzyl)-3-methyl-6-(1H-tetrazole-5-yl)-1H-pyrazolo[4,3-b]pyridine]
186	Cc1nn(Cc2c(Cl)cccc2Cl)c2cc(CCC(N)=O)ccc12 [Example 132, 3-[1-(2,6-dichlorobenzyl)-3-methyl-1H-indazole-6-yl]propionamide]
163	Clc1cccc(Cl)c1Cn1nc(Cl)c2ncc(-c3nnn[nH]3)cc21 [Example 175, 3-chloro-1-(2,6-dichlorobenzyl)-6-(1H-tetrazole-5-yl)-1H-pyrazolo[4,3-b]pyridine]
52	CCc1nn(Cc2c(Cl)cccc2Cl)c2cc(-c3nnn[nH]3)ccc12 [Example 182, 1-(2,6-dichlorobenzyl)-3-ethyl-6-(1H-tetrazole-5-yl)-1H-indazole]
916	Cc1nn(Cc2c(Cl)cccc2Cl)c2cc(OCC(=O)O)ccc12 [Example 138, 2-[1-(2,6-dichlorobenzyl)-3-methyl-1H-indazole-6-yloxy]acetic acid]
15	Cc1nn(Cc2c(Cl)cccc2Cl)c2cc(C(F)(F)C(=O)O)ccc12 [Example 183, [1-(2,6-dichlorobenzyl)-3-methyl-1H-indazole-6-yl]difluoroacetic acid]
26	CCc1nn(Cc2c(Cl)cccc2Cl)c2cc(CCC(=O)O)ccc12 [Example 145, 3-[1-(2,6-dichlorobenzyl)-3-ethyl-1H-indazole-6-yl]propionic acid]
